Data on 20 compounds can be found in patent US8440841B2, “5-pyrrolidinylsulfonyl isatin derivatives” (Universitätsklinikum Münster, priority 2005, dated 2013).

Data set [1] deals with T1, recombinant human caspase 3 (Homo sapiens, UniProt P42574).
T1 construct: Recombinant full-length human caspase-3 was purified as described previously [21b]; made in house
T1 sequence (P42574 29-175 limits assumed): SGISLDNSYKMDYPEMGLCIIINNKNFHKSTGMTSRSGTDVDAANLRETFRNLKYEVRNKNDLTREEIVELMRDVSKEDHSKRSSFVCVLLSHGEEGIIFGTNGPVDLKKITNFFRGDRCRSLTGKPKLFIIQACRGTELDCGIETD
T1 sequence (P42574 176-277 limits assumed): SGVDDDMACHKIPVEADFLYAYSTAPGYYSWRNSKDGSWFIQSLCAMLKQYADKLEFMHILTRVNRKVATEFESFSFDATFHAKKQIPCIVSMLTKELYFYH
Put plainly: Caspase inhibition assay, standard fluorometric assay with Ac-DEVD-AMC. It counts as biochemical. Conditions: Ki(app) = IC50/(1 + [S]/KM), [S] = 10 μM Ac-DEVD-AMC, 37° C., pH 7.5. As for the experimental part:
The inhibition of recombinant human caspase 3 by twentythree isatin sulfonamides (twenty
Recombinant full-length human caspase-3 was purified as described previously [21b]. […] Enzyme assays were performed in a 200 μl volume at 37° C. in reaction buffer containing 0.1% CHAPS, 50 mM KCl, 5 mM β-mercaptoethanol, 25 mM HEPES (pH 7.5) and nonradioactive isatins in DMSO each in single doses (end concentrations 500 μM, 50 μM, 5 μM, 500 nM, 50 nM, 5 nM, 500 pM, 50 pM or 5 pM). […] After 10 min incubation time Ac-DEVD-AMC (end concentration 10 μM) was added and reacted for further 10 min. […] The IC50-values were determined by non-linear regression analysis using the XMGRACE program (Linux software) and converted into the corresponding Ki-values by the equation Ki=IC50/(1+[S]/KM) assuming competitive inhibition by the isatin derivatives, where [S] is the concentration and KM is the Michaelis constant of substrate Ac-DEVD-AMC.

Another data set concerns the target T2, active caspase-3 (Homo sapiens, UniProt P42574).
T2 construct: endogenous in cells; host or cells: HUVEC
T2 sequence (P42574 29-175 limits assumed): T1 sequence (P42574 29-175 limits assumed)
T2 sequence (P42574 176-277 limits assumed): T1 sequence (P42574 176-277 limits assumed)
Put plainly: Cellular caspase assay: growth factor withdrawal-induced apoptosis in HUVEC, Western blot. It counts as cell-based. The note with it: 8 hours, at 10 μM (FIGS. 1 and 2). The procedure:
In the context of cellular apoptosis assays concentration- and time-dependent kinetics of mentioned CbRs and CbR-transporter conjugates are performed to evaluate the pharmacological inhibition of apoptosis in viable apoptotic cells (e.g. growth factor withdrawal-induced, drug-induced, or ionizing radiation-induced apoptosis in endothelial cells).
HUVEC (Human umbilical vein endothelial cells) were cultivated on gelatine (2%)-coated dishes in RPMI-1640 containing 15% bovine calf serum, 1% Pen/Strep/Amph, 1% Heparin and 0.05 mg/ml bovine pituitary extract (BPE) at 37° C. in 5% CO2. Apoptosis was induced by growth factor withdrawal as previously described. For caspase inhibition experiments, cells were pre-incubated for 30 min with the compounds in the indicated concentrations. The medium was then removed and replaced with RPMI-1640 without serum or BPE, and the cells were incubated in the presence or absence of the various inhibitor concentrations for 8 hours. All cells were then harvested in lysis buffer, incubated for 10 min on ice, and cell debris was removed by centrifugation at 14000 rpm at 4° C. for 10 min. Protein concentration was determined by the Pierce protein assay, and 30 μg cell lysate were loaded on 15% SDS-Page gels and transferred to Immobilon PVDF membranes. Western blots were performed with antibodies to active caspase-3 (Cell Signaling) and developed using ECL (Amersham).
A quantitative (pharmacological) inhibition of before mentioned target caspases with the non-radioactive PET- or SPECT-compatible CbRs of presented invention needs macroscopic amounts of the inhibitor, i.e. concentrations of caspase inhibitor that are definitely more than necessarily needed for molecular imaging purposes.
In general terms: A western blot detects proteins with antibodies after separation by electrophoresis.

Data set [2] in a line: Small-animal PET biodistribution after i.v. injection. It counts as in vivo, WT Mouse (Nu/Nu). Conditions: mouse, 180 min p.i. The procedure: PET was performed using a high-resolution dedicated small-animal PET system (32-module quadHIDAC; Oxford Positron Systems) which uses multiwire chamber detectors with submillimeter-resolution potency. For each data acquisition, up to two mice were placed on a heating pad to maintain a normal body temperature. The animals were anesthetised by inhalation of isoflurane (1.5%) and intravenously injected with approximately 7 MBq of each radiotracer in 100 μL isotonic as well as isohydric solution.
A small-animal PET scan was performed with the quadHIDAC device to trace the in vivo biodistribution behavior of the PET-compatible CbR (S)-1-(4-(2[<18>F]fluoroethoxy)benzyl)-5-[1-(2-methoxymethylpyrrolidinyl)-sulfonyl]isatin [<18>F]VI. Immediately after i.v. injection of [<18>F]VI (A=7MBq, pH=8, A5=48 GBq/[mu]mol, V=100 [mu]1 in sodium bicarbonate buffered saline solution) data acquisition was started. List-mode data were acquired for 180 min and subsequently reconstructed into an image volume of 90×90×120 mm<3>, voxel size 0.4×0.4×0.4 mm<3>, using an iterative reconstruction algorithm (OPL-EM). […] Mentioned hot spot remains even 6 h p.i. (data not shown).

The term melting point denotes the temperature, or range, at which the solid turns liquid.

On to `C[Si](C)(C)c1ccc(CN2C(=O)C(=O)c3cc(S(=O)(=O)N4CCC[C@H]4COc4ccccc4)ccc32)cc1` [1b, (S)-5-[1-(2-phenoxymethylpyrrolidinyl)sulfonyl]-1-(4-trimethylsilylbenzyl)-isatin], for which the melting point is 128 to 130 °C (dec.). Besides, the Ki in data set [1] stood at 0.7 nM.
As to `O=C1C(=O)N(Cc2ccc(Br)cc2)c2ccc(S(=O)(=O)N3CCC[C@H]3COc3ccccc3)cc21` [1c, (S)-(+)-1-(4-bromobenzyl)-5-[1-(2-phenoxymethylpyrrolidinyl)sulfonyl]isatin], in data set [1], the Ki was 3 nM.
Turning to `COC[C@@H]1CCCN1S(=O)(=O)c1ccc2c(c1)C(=O)C(=O)N2C` [II, (S)-5-[1-(2-methoxymethylpyrrolidinyl)sulfonyl]-1-methyl-isatin], the melting point was in the range of 143 to 144 °C. For the same compound, the “inhibition of caspase progression (Western blot, active caspase-3)” value (“inhibition of caspase progression” below) on active caspase-3 is “recognizable”. Besides, the Ki in data set [1] is 2 nM.
Take `O=C1C(=O)N(Cc2ccc(O)cc2)c2ccc(S(=O)(=O)N3CCC[C@H]3COc3ccccc3)cc21` [IIIa, (S)-1-(p-hydroxybenzyl)-5-[1-(2-phenoxymethylpyrrolidinyl)sulfonyl]isatin]: the Ki in data set [1] was found to be 3 nM.
For `O=C1C(=O)N(Cc2ccc(OCc3ccccc3)cc2)c2ccc(S(=O)(=O)N3CCC[C@H]3COc3ccccc3)cc21` [IIIaa, (S)-(+)-1-(4-benzyloxybenzyl)-5-[1-(2-phenoxymethylpyrrolidinyl)-sulfonyl]isatin], the melting point is 69 to 70 °C. The Ki in data set [1] came out at 6.9 nM.
With `CC(C)(C)[Si](C)(C)Oc1ccc(CN2C(=O)C(=O)c3cc(S(=O)(=O)N4CCC[C@H]4COc4ccccc4)ccc32)cc1` [IIIab, (S)-1-(p-tert-butyldimethylsilyloxybenzyl)-5-[1-(2-phenoxymethylpyrrolidinyl)sulfonyl]-isatin], the Ki in data set [1] is 20 nM.
For the compound `COC[C@@H]1CCCN1S(=O)(=O)c1ccc2c(c1)C(=O)C(=O)N2` [IIa, (S)-5-(1-[2-(methoxymethyl)pyrrolidinyl]-sulfonyl)isatin, reference compound], the Ki in data set [1] was 77 nM.
With `COC[C@@H]1CCCN1S(=O)(=O)c1ccc2c(c1)C(=O)C(=O)N2Cc1ccc(OC)cc1` [IV, (S)-1-(4-methoxybenzyl)-5-[1-(2-methoxymethylpyrrolidinyl)sulfonyl]isatin], the “inhibition of caspase progression” value against active caspase-3 is “recognizable”. For the same compound, the Ki in data set [1] was found to be 9 nM.
On to `COC[C@@H]1CCCN1S(=O)(=O)c1ccc2c(c1)C(=O)C(=O)N2Cc1ccc(O)cc1` [IVa, (S)-1-(p-hydroxybenzyl)-5-[1-(2-methoxymethylpyrrolidinyl)sulfonyl]isatin], for which the Ki in data set [1] is 45 nM.
Regarding `COC[C@@H]1CCCN1S(=O)(=O)c1ccc2c(c1)C(=O)C(=O)N2Cc1ccc(OCc2ccccc2)cc1` [IVaa, (S)-(+)-1-(4-benzyloxybenzyl)-5-[1-(2-methoxymethylpyrrolidinyl)-sulfonyl]isatin], the melting point lay within 73 to 74 °C. Moreover, the Ki in data set [1] was 5 nM.
For the compound `COC[C@@H]1CCCN1S(=O)(=O)c1ccc2c(c1)C(=O)C(=O)N2Cc1ccc(O[Si](C)(C)C(C)(C)C)cc1` [IVab, (S)-1-(p-tert-butyldimethylsilyloxybenzyl)-5-[1-(2-methoxymethylpyrrolidinyl)sulfonyl]-isatin], in data set [1], the Ki came to 4 nM.
The same measure, in the same setting: then `O=C1C(=O)N(Cc2ccc(OCCF)cc2)c2ccc(S(=O)(=O)N3CCC[C@H]3COc3ccccc3)cc21` [V, (S)-1-(4-(2-fluoroethoxy)benzyl)-5-[1-(2-phenoxymethylpyrrolidinyl)sulfonyl]isatin], with 0.4 nM.
Regarding `COC[C@@H]1CCCN1S(=O)(=O)c1ccc2c(c1)C(=O)C(=O)N2Cc1ccc(OCCF)cc1` [VI, (S)-1-(4-(2-fluoroethoxy)benzyl)-5-[1-(2-methoxymethylpyrrolidinyl)sulfonyl]isatin], the “inhibition of caspase progression” value against active caspase-3 is listed as “recognizable”. In data set [1], the Ki came to 36 nM.
Consider `COC[C@@H]1CCCN1S(=O)(=O)c1ccc2c(c1)C(=O)C(=O)N2Cc1ccc(OCCOS(=O)(=O)c2ccc(C)cc2)cc1` [VIa, (S)-1-(4-(2-(p-methylphenylsulfonyloxy)ethoxy)benzyl)-5-[1-(2-methoxymethylpyrrolidinyl)sulfonyl]isatin], for which the melting point lay within 61 to 62 °C. Further, the Ki in data set [1] stood at 2 nM.
The compound `COC[C@@H]1CCCN1S(=O)(=O)c1ccc2c(c1)C(=O)C(=O)N2Cc1ccc(OCCBr)cc1` [VIaa, (S)-1-(4-(2-bromoethoxy)benzyl)-5-[1-(2-methoxymethylpyrrolidinyl)-sulfonyl]isatin] displayed a melting point of 61 to 62 °C. Besides, the Ki in data set [1] was determined as 13 nM.
As to `Cc1ccc(S(=O)(=O)OCCOc2ccc(CN3C(=O)C(=O)c4cc(S(=O)(=O)N5CCC[C@H]5COc5ccccc5)ccc43)cc2)cc1` [Va, (S)-1-(4-(2-(p-methylphenylsulfonyloxy)ethoxy)benzyl)-5-[1-(2-phenoxymethylpyrrolidinyl)sulfonyl]isatin], in data set [1], the Ki worked out at 17 nM.
As to `O=C1C(=O)N(Cc2ccc(OCCBr)cc2)c2ccc(S(=O)(=O)N3CCC[C@H]3COc3ccccc3)cc21` [Vaa, (S)-1-(4-(2-bromoethoxy)benzyl)-5-[1-(2-phenoxymethylpyrrolidinyl)sulfonyl]isatin], the melting point lay within 162 to 163 °C. The Ki in data set [1] was 25 nM.
On to `COC[C@@H]1CCCN1S(=O)(=O)c1ccc2c(c1)C(=O)C(=O)N2Cc1ccc(OCC[18F])cc1` [[^18F]VI, (S)-1-(4-(2-[^18F]Fluoroethoxy)benzyl)-5-[1-(2-methoxymethylpyrrolidinyl)-sulfonyl]isatin], for which the “clearance of radioactivity from peripheral organs (PET)” value in data set [2] (7 MBq, all peripheral organs (FIG. 3)) was “cleared”. The “remaining radioactivity (PET)” value in data set [2] (hot spot (putatively gall bladder) remains even 6 h p.i.) is “only remains in the bowels and in a hot spot nearby the liver”.
Compound `O=C1C(=O)N(Cc2ccc(I)cc2)c2ccc(S(=O)(=O)N3CCC[C@H]3COc3ccccc3)cc21` [compound 1, (S)-1-(4-iodobenzyl)-5-[1-(2-phenoxymethylpyrrolidinyl)sulfonyl]isatin] registered a melting point of 88 to 90 °C.
Compound `COC[C@@H]1CCCN1S(=O)(=O)c1ccc2c(c1)C(=O)C(=O)N2Cc1ccc(I)cc1` [compound 2, (S)-1-(4-iodobenzyl)-5-[1-(2-methoxymethylpyrrolidinyl)sulfonyl]isatin] came in with a melting point of 129 to 130 °C. In addition, on active caspase-3, the “inhibition of caspase progression” value is listed as “recognizable”. The Ki in data set [1] came to 11 nM.
